Measurements taken from US5443986A, “Enzymatic analysis using substrates that yield fluorescent precipitates” (Molecular Probes, Inc., priority 1993, dated 1995).

Columns and labels:
alkaline phosphatase = alkaline phosphatase (Bos taurus, UniProt P19111); test: Detection of enzyme on non-denaturing gels after electrophoresis; format: biochemical
Protocol: 1 ). Detecting enzymes on native gels using precipitating substrates. Gel electrophoresis is a common method for identifying proteins in fluids and tissue homogenates. In native gel electrophoresis, the proteins retain their activity during the process of separation and thus can hypothetically be identified by activity assays. By incubating the native gel with various precipitating substrates specific for the analyte enzyme, one can identify whether the enzyme is present in the loaded sample. These methods are used for investigating the expression of both endogenous enzymes and enzyme-fusion proteins and for the detection of the enzyme in samples suspected of containing the enzyme. A protocol commonly used in these experiments is as follows:
1. The enzyme-containing sample is mixed with the sample buffer (0.075M TRIS-HCl in 50% glycerol, pH 6.8) to a concentration that is appropriate for loading the enzyme. The sample is loaded onto a 4-20% gradient acrylamide gel. The gel is run at 30 mA for approximately 30 minutes.
2. The gel is incubated in a buffer that is optimal for the enzyme being detected and that contains 1 mM of the substrate. For alkaline phosphatase the buffer used is 100 mM MOPS, 50 mM NaCl, 1 mM MgCl2, 0.1 mM ZnCl2, pH 7.5. The appearance of fluorescent bands is monitored using a hand-held ultraviolet lamp.
2). Comparing the sensitivity of enzyme detection using precipitating substrates versus standard Coomassie Blue detection. Decreasing amounts of alkaline phosphatase are loaded into the lanes of two gels. The amount of alkaline phosphatase loaded into each lane varies from […]. After electrophoresis, one gel is developed for visualization using standard Coomassie Blue-staining procedures; the other by incubation with 1 mM 8e as described above. The minimum detectable quantity of alkaline phosphatase using standard Coomassie Blue-staining methods is 1 μg. After incubation with 8e for 30 minutes, 1 ng of alkaline phosphatase is clearly visible using a handheld UV-lamp. After approximately 20 hours incubation, 0.25 ng of alkaline phosphatase can be visibly detected without any signal enhancement. These experiments indicate that incubation with the precipitating substrate provides a method for enzyme detection that is 4000 times more sensitive than standard Coomassie Blue-staining methods. […] Multiple proteins or extracts can be run in a single lane with only the enzyme specific for the synthetic substrate being detected by the staining.

HEp-2 cells = test: Enzyme-mediated immunohistochemical detection (SLE kit) on fixed HEp-2 cells; format: cell-based, human; conditions: 30 minute incubation, 100 mM MOPS pH 7.5, biotinylated alkaline phosphatase
Protocol: 1 ). Cells and Detection Kit. […] The kit includes slides containing wells of fixed HEp-2 cells (human epithelial cells) and a positive control consisting of anti-DNA antibodies isolated from humans with the disease. Normally, the slides are incubated with sera from patients and then probed with fluorescein-conjugated anti-human antibodies. Using this method, the nuclei of those cells that have been incubated with SLE-positive sera appear to have typical morphology that is identified by their green fluorescence using standard fluorescence microscopy whereas the negative controls have no fluorescence.
2). Sample Preparation. A four-step incubation protocol is used to prepare the slides. All reagents are diluted in 1% bovine serum albumin (BSA) in TRIS-buffered saline, pH 7.5 (TBS; 100 mM NaCl, 100 mM TRIS). Each incubation is 1/2 hour. Slides are washed three times with TBS between incubations. A typical procedure consists of the following steps:
1. The wells are incubated with either SLE-positive or -negative human sera (provided in the kit).
2. The wells are incubated with biotinylated goat anti-human ([…]).
3. The wells are incubated with streptavidin (50 μg/mL), a reagent that has four binding sites for biotin. Excess binding sites are available for binding the next reagent.
4. The wells are incubated with a biotinylated enzyme that will remove BLOCK from the subject substrates. […]

[1] = Critical concentration (Mc) for precipitation of the enzymatic product; format: physicochemical; conditions: product of hydrolysis by excess alkaline phosphatase, 0.1M TRIS pH 10.3
Protocol: 2D) Critical concentration: Various concentrations of 2-(4'-methoxy-2'-phosphoryloxyphenyl)quinazolinone (3e) were reacted with 50 μL of excess alkaline phosphatase in 200 μL solution of 0.1M TRIS≥pH 10.3 containing 50 mM NaCl, 10 mM MgCl2 and 0.1 mM ZnCl2. The resulting precipitate and fluorescence were measured in a CytoFluor fluorescence plate reader (Millipore) with excitation at 360 nm, emission at 460 nm using sensitivity setting 3.
3). Determination of the critical concentration and pH dependence for the precipitation. The critical concentration (Mc, in units of mmoles) and the pH dependence (pKa) for precipitation are both important parameters for judging the precipitation properties of the enzymatic products obtained from the subject substrates. Below the critical concentration the product will not be detected as a fluorescent precipitate. Obviously these two parameters contribute to the precipitation in a correlated way. As a simple approach, one may define the critical concentration as the concentration necessary for the precipitation at a high pH where all of the phenol group is ionized. Similarly, acidification by lowering the pH results in precipitation at a concentration below the critical concentration that is obtained at high pH to an extent that is related to the pKa of the phenolic group. It is a characteristic of the preferred substrates that only the product precipitate is fluorescent. In this case the precipitate is quantitated by its fluorescence which results in a correlation of the fluorescence with the degree of precipitation.
To obtain the critical concentration for one product the phosphatase substrate (1e) (200 μL) in a 96-well plate is added to 0.1M TRIS, pH 10.3, containing 50 mM NaCl, 10 mM MgCl2 and 0.1 mM ZnCl2 to yield a final concentration of 0.1 to 10 mM. 50 μL of a 1 mg/mL solution of alkaline phosphatase is then added. The fluorescence development is complete after 5 minutes as measured in using a CytoFluor™ 2300 fluorescence plate reader (Millipore, Bedford, Mass.). A concentration showing appreciable fluorescence is determined as the critical concentration.

alkaline phosphatase, sequence (P19111 20-506 limits assumed): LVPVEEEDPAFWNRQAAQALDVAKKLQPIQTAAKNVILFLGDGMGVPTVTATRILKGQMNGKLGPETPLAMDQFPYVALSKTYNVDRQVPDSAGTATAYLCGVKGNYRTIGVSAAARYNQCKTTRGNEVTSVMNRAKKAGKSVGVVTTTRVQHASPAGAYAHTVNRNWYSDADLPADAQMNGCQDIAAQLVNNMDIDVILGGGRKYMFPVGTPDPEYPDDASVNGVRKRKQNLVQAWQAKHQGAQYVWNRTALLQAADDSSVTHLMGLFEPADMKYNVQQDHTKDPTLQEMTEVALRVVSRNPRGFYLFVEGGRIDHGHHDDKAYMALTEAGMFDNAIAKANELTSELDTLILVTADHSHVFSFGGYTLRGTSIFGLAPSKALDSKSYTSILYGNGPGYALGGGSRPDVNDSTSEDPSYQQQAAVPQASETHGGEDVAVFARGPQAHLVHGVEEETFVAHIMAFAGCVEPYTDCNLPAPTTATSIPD

O=c1[nH]c(-c2cc(Cl)ccc2OP(=O)(O)O)nc2ccc(Cl)cc12 [8e, Ammonium 2-(5'-chloro-2'-phosphoryloxyphenyl)-6-chloro-4-(3H)-quinazolinone]
quantity of alkaline phosphatase clearly visible on the gel (alkaline phosphatase; 1 mM substrate, 30 minutes incubation, handheld UV-lamp): 1 ng
quantity of alkaline phosphatase visibly detected on the gel (alkaline phosphatase; 1 mM substrate, approximately 20 hours incubation, no signal enhancement): 0.25 ng
sensitivity relative to standard Coomassie Blue-staining methods (alkaline phosphatase; enzyme detection on gel): 4000 times
staining of negative control lanes (alkaline phosphatase; lanes loaded with 2-μg bovine serum albumin or 2-μg β-galactosidase): does not stain lanes
staining of cells incubated with SLE-positive sera (HEp-2 cells): brightly fluorescent nuclei
staining of wells incubated with negative sera (HEp-2 cells): No signal is detected
Mc (critical concentration for precipitation) [1]: 0.1 mM
